According to patent EP4610269A1, “UROKINASE PLASMINOGEN ACTIVATOR SURFACE RECEPTOR (UPAR) LIGANDS FOR DIAGNOSTIC OR THERAPEUTIC USE” (3B Pharmaceuticals GmbH, priority 2024, dated 2025):
Like-named read-outs stand apart in the source and are kept apart here. Where a SMILES comes first, the peptide text is derived from it. Bridges are numbered along the chain shown (N, C = ends). Side-chain parts run from the residue outwards. [ ]: non-standard residue; d: D form. The star is where a group is joined. GdDOTA = Gd(III) DOTA conjugate, O=C([O-])CN1CCN(CC(=O)[O-])CCN(CC(=O)*)CCN(CC(=O)[O-])CC1.[Gd+3]; DOTA(Lu) = O=C1CN2CCN3CCN(CC(=O)*)CCN(CC2)CC(=O)[O][Lu]([O]1)[O]C(=O)C3; DOTA = O=C(O)CN1CCN(CC(=O)O)CCN(CC(=O)*)CCN(CC(=O)O)CC1; PEG12 = NCCOCCOCCOCCOCCOCCOCCOCCOCCOCCOCCOCCOCCC(=O)O; Hyp = O=C(O)[C@@H]1C[C@@H](O)CN1; hArg = N=C(N)NCCCC[C@H](N)C(=O)O; Pentanoyl(4-Me) = CC(C)CCC(=O)*; Cit = NC(=O)NCCC[C@H](N)C(=O)O; Butoxycarbonyl = CCCCOC(=O)*; Api = NC1(C(=O)O)CCNCC1; Nva = CCC[C@H](N)C(=O)O; Hexanoyl = CCCCCC(=O)*; Pentanoyl = CCCCC(=O)*; AEEA = NCCOCCOCC(=O)O

Key:
[1] = Plasma stability assay (mouse plasma); assay type: in vitro ADME; conditions: 37°C, LC-MS quantification; for remaining at 6 h, 9.8 µM: mouse plasma (sodium citrate 3.7%), read-out: % intact compound remaining after 6h incubation Mouse plasma; for % intact compound remaining after 6h incubation Mouse plasma: mouse plasma (sodium citrate)
Procedure: In order to determine the stability of selected compounds of the invention in human and mouse plasma, a plasma stability assay was carried out. Such plasma stability assay measures degradation of compounds of the present invention in blood plasma. This is an important characteristic of a compound as compounds, with the exception of pro-drugs, which rapidly degrade in plasma, generally show poor in vivo efficacy. […] The stability is sufficient for the diagnostic, therapeutic and theragnostic use of these compounds according to the present invention.
The plasma stability samples were prepared by spiking 50 µl plasma aliquots (all sodium citrate 3.7%) with 1 µl of a 0.5 mM compound stock solution in DMSO. After vortexing the samples were incubated in a Thermomixer at 37°C for 0 and 6 hours. After incubation the samples were stored on ice until further treatment. All samples were prepared in duplicates.
A suitable internal standard was added to each sample (1 µl of a 0.5 mM stock solution in DMSO). Protein precipitation was performed using two different methods depending on the compound conditions as indicated in Table 13. • A) 250 µl of acetonitrile containing 1% trifluoroacetic acid was added. After incubation at room temperature for 30 min the precipitate was separated by centrifugation and 150 µl of the supernatant was diluted with 150 µl of 1% aqueous formic acid. • B) 150 µl of a zinc sulphate precipitation agent containing 78% 0.1 M zinc sulphate and 22% acetonitrile was added. After incubation at room temperature for 30 min the precipitate was separated by centrifugation. To 100 µl of the supernatant 10 µl of 1% formic acid was added followed by further incubation at 60°C for 10 min to complete the formation of the zinc chelate, if the compound contains a free DOTA moiety.
The determination of the analyte in the clean sample solutions was performed on an Agilent 1290 UHPLC system coupled to an Agilent 6530 Q-TOF mass spectrometer. The chromatographic separation was carried out on a Phenomenex BioZen XB-C18 HPLC column (50 x 2 mm, 1.7 µm particle size).
Two different elution gradients were applied using a mixture of 0.1% formic acid in water as eluent A and acetonitrile as eluent B: • A) 2% B to 41% in 7 min, 800 µl/min, 40°C. • B) 5% B to 50% B in 6 min, 800 µL/min, 40°C.
Mass spectrometric detection was performed in positive ion ESI mode by scanning the mass range from m/z 50 to 3000 with a sampling rate of 2 / sec.
From the mass spectrometric raw data the ion currents for the double or triple charged monoisotopic signal was extracted for both, the compound and the internal standard.
Quantitation was performed by external matrix calibration with internal standard using the integrated analyte signals.
Additionally, recovery was determined by spiking a pure plasma sample that only contained the internal standard after treatment with a certain amount of the compound.
Carry-over was evaluated by analysis of a blank sample (20% acetonitrile) after the highest calibration sample.
The result is stated as "% intact compound remaining after 6 h incubation" and means that from the amount of material at the start of the experiment the stated percentage is detected as unchanged material at the end of the experiment by LC-MS quantification. Since all compounds are more than 50% intact after 6 h they are considered as stable enough for diagnostic and therapeutic applications. Table 13: Results of the plasma stability assay

human uPAR (uPAR-Fc) = target: T1, human uPAR (uPAR-Fc) (Homo sapiens, UniProt Q03405); assay: Surface plasmon resonance (SPR) assay, single cycle kinetics; assay type: binding; conditions: pKD category for uPAR SPR activity assay, uPAR-Fc on Protein A-Chip, 25°C, read-out: pKD CAT (converted)
T1 construct: comprising amino acids Leu23-Arg303 according to UniProt entry Q03405.1; purchased R&D Systems 10378-UK-100
T1 sequence (Q03405 23-303): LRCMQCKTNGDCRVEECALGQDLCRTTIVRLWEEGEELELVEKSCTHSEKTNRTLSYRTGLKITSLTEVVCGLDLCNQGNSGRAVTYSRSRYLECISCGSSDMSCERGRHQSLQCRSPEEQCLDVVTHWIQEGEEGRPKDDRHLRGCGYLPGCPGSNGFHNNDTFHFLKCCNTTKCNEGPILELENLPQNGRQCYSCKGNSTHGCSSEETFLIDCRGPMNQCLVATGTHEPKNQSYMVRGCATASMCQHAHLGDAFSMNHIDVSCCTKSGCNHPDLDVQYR
Outline: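 uPAR-Fc (Leu23-Arg303 extracellular domains, human IgG1 Fc) captured on Protein A chip to ~2000 RU; single-cycle kinetics at 25°C in HEPES running buffer pH 7.4 with 0.1% DMSO. KD from double-referenced sensorgrams fitted to 1:1 Langmuir model, reported as pKD.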

[2] = target: T2, uPAR-expressing HEC-265 human endometrial adenocarcinoma cells (Homo sapiens, UniProt Q03405); assay: Competitive FACS binding assay; conditions: pIC50 category of FACS binding
T2 construct: Cell surface uPAR-expressing HEC-265 human endometrial adenocarcinoma cells; host or cells: HEC-265
T2 sequence (Q03405 23-335): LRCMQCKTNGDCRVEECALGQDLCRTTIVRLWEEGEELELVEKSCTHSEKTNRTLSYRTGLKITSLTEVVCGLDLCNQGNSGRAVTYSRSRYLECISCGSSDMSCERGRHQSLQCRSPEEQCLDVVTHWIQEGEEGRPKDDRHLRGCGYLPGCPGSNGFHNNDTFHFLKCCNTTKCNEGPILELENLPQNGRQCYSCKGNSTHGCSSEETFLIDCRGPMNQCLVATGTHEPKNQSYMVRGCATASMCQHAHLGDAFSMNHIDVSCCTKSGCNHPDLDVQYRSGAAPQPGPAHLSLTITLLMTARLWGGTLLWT
Outline: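 HEC-265 cells incubated 1 h at 4 °C with 10 nM biotinylated uPAR peptide tracer plus increasing test compound, then stained with APC-streptavidin on ice. Median APC fluorescence by flow cytometry; 4PL fit gives pIC50.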

Row | remaining at 6 h, 9.8 µM [1] [%] | Kd (human uPAR (uPAR-Fc)) [nM] | IC50 [2] [nM] | Kd (human uPAR (uPAR-Fc); single cycle kinetics) [nM] | Compound | % intact compound remaining after 6h incubation Mouse plasma [1] [%] | pIC50 CAT [2]
1 | 57 | < 1.58 | ≤ 10 | – | CC[C@H](C)[C@@H]1NC(=O)[C@@H](C)NC(=O)[C@@H]2CCCN2C(=O)[C@H](Cc2ccccc2)NC(=O)[C@H](Cc2ccc(O)cc2)NC(=O)[C@H](CCCCNC(=O)CN2CCN(CC(=O)O)CCN(CC(=O)O)CCN(CC(=O)O)CC2)NC(=O)[C@H](CCCNC(=N)N)NC(=O)[C@@H](NC(=O)CCC(C)C)CSSC[C@@H](C(N)=O)NC(=O)[C@H](CC(C)C)NC1=O [UPAR-176, iHex-[Cys-Arg-Lys(DOTA)-Tyr-Phe-Pro-ala-Ile-Leu-Cys]-NH2] ({Pentanoyl(4-Me)}-CRK(DOTA)YFP[dA]ILC-NH2; disulfide 1-10) | – | –
2 | > 95 | < 1.58 | ≤ 10 | – | CCCCC(=O)N[C@H]1CSSC[C@@H](C(N)=O)NC(=O)[C@H](CCC)NC(=O)[C@H]([C@@H](C)CC)NC(=O)[C@@H]2C[C@@H](O)CN2C(=O)[C@@H]2CCCN2C(=O)[C@H](Cc2ccccc2)NC(=O)[C@H](Cc2ccc(O)cc2)NC(=O)[C@H](CCCCNC(=O)CCOCCOCCOCCOCCOCCOCCOCCOCCOCCOCCOCCOCCNC(=O)CN2CCN(CC(=O)O)CCN(CC(=O)O)CCN(CC(=O)O)CC2)NC(=O)[C@H](CCCNC(N)=O)NC1=O [UPAR-200, Pent-[Cys-Cit-Lys(DOTA-PEG12)-Tyr-Phe-Pro-Hyp-Ile-Nva-Cys]-NHz] (Pentanoyl-C[Cit]K([PEG12-DOTA])YFP[Hyp]I[Nva]C-NH2; disulfide 1-10) | – | –
3 | 84 | > 100 | ≥ 126 | – | CC[C@H](C)[C@@H]1NC(=O)[C@@H](C)NC(=O)[C@@H]2CCCN2C(=O)[C@H](Cc2ccccc2)NC(=O)[C@H](Cc2ccc(O)cc2)NC(=O)[C@H](CCC(N)=O)NC(=O)[C@@H](C)NC(=O)[C@@H](NC(=O)[C@H](CC(C)C)NC(=O)COCCOCCNC(=O)CN2CCN(CC(=O)O)CCN(CC(=O)O)CCN(CC(=O)O)CC2)CSSC[C@@H](C(N)=O)NC(=O)[C@H](CC(C)C)NC1=O [UPAR-216, DOTA-O2Oc-Leu-[Cys-ala-Gln-Tyr-Phe-Pro-ala-Ile-Leu-Cys]-NH2] ({DOTA-AEEA}-LC[dA]QYFP[dA]ILC-NH2; disulfide 2-11) | – | –
4 | 87 | < 1.58 | ≤ 10 | – | CCCCC(=O)N[C@H]1CSSC[C@@H](C(N)=O)NC(=O)[C@H](CCC)NC(=O)[C@H]([C@@H](C)CC)NC(=O)[C@@H]2C[C@@H](O)CN2C(=O)[C@@H]2CCCN2C(=O)[C@H](Cc2ccccc2)NC(=O)[C@H](Cc2ccc(O)cc2)NC(=O)[C@H](CCCCNC(=O)CN2CCN(CC(=O)O)CCN(CC(=O)O)CCN(CC(=O)O)CC2)NC(=O)[C@H](CCCCNC(=N)N)NC1=O [UPAR-278, Pent-[Cys-Har-Lys(DOTA)-Tyr-Phe-Pro-Hyp-Ile-Nva-Cys]-NH2] (Pentanoyl-C[hArg]K(DOTA)YFP[Hyp]I[Nva]C-NH2; disulfide 1-10) | – | –
5 | > 95 | – | ≤ 10 | < 1.58 | CCCCCC(=O)N[C@@H](CC(=O)O)C(=O)N[C@@H](CC(C)C)C(=O)N[C@H]1CSSC[C@@H](C(N)=O)NC(=O)[C@H](CC(C)C)NC(=O)[C@H]([C@@H](C)CC)NC(=O)[C@H](CCCCNC(=O)CN2CCN(CC(=O)O)CCN(CC(=O)O)CCN(CC(=O)O)CC2)NC(=O)[C@@H]2CCCN2C(=O)[C@H](Cc2ccccc2)NC(=O)[C@H](Cc2ccc(O)cc2)NC(=O)[C@H](CCSC)NC(=O)[C@H](CCCNC(=N)N)NC1=O [UPAR-351, Hex-Asp-Leu-[Cys-Arg-Met-Tyr-Phe-Pro-Lys(DOTA)-Ile-Leu-Cys]-NH2] (Hexanoyl-DLCRMYFPK(DOTA)ILC-NH2; disulfide 3-12) | – | –
6 | 85 | – | ≤ 10 | < 1.58 | CC[C@H](C)[C@@H]1NC(=O)[C@@H](C)NC(=O)[C@@H]2CCCN2C(=O)[C@H](Cc2ccccc2)NC(=O)[C@H](Cc2ccc(O)cc2)NC(=O)[C@H](CCC(N)=O)NC(=O)[C@H](CCCNC(N)=O)NC(=O)[C@@H](NC(=O)[C@H](CC(C)C)NC(C)=O)CSSC[C@@H](C(N)=O)NC(=O)[C@H](CC(C)C)NC1=O [UPAR-418, Ac-Leu-[Cys-Cit-Gln-Tyr-Phe-Pro-ala-Ile-Leu-Cys]-NH2] (Ac-LC[Cit]QYFP[dA]ILC-NH2; disulfide 2-11) | – | –
7 | > 95 | – | ≤ 10 | < 1.58 | CCCCCC(=O)N[C@@H](CC(=O)O)C(=O)N[C@@H](CC(C)C)C(=O)N[C@H]1CSSC[C@@H](C(N)=O)NC(=O)[C@H](CC(C)C)NC(=O)[C@H]([C@@H](C)CC)NC(=O)[C@H](C)NC(=O)[C@@H]2CCCN2C(=O)[C@H](Cc2ccccc2)NC(=O)[C@H](Cc2ccc(O)cc2)NC(=O)[C@H](CCCCNC(=O)CN2CCN(CC(=O)O)CCN(CC(=O)O)CCN(CC(=O)O)CC2)NC(=O)[C@H](CCCNC(=N)N)NC1=O [UPAR-427, Hex-Asp-Leu-[Cys-Arg-Lys(DOTA)-Tyr-Phe-Pro-Ala-Ile-Leu-Cys]-NH2] (Hexanoyl-DLCRK(DOTA)YFPAILC-NH2; disulfide 3-12) | – | –
8 | – | – | – | – | iHex-[Cys-Arg-Gln-Tyr-Phe-Pro-Apc(GdDOTA)-Ile-Leu-Cys]-NH2 ({Pentanoyl(4-Me)}-CRQYFP[Api](GdDOTA)ILC-NH2; disulfide 1-10 (inferred); not fully specified) [UPAR-457] | 64 | A (pIC50 values ≥8.0)
9 | – | – | – | – | iHex-[Cys-Lys(LuDOTA)-Gln-Tyr-Phe-Pro-ala-Ile-Leu-Cys]-NH2 ({Pentanoyl(4-Me)}-CK(DOTA(Lu))QYFP[dA]ILC-NH2; disulfide 1-10 (inferred); not fully specified) [UPAR-408] | 75 | A (pIC50 values ≥8.0)

Row | Compound | remaining at 6 h, 9.8 µM [1] [%] | Kd (human uPAR (uPAR-Fc)) [nM] | IC50 [2] [nM] | Kd (human uPAR (uPAR-Fc); single cycle kinetics) [nM] | % intact compound remaining after 6h incubation Mouse plasma [1] [%] | pIC50 CAT [2]
10 | CCCCOC(=O)N[C@H]1CSSC[C@@H](C(N)=O)NC(=O)[C@H](CCC)NC(=O)[C@H]([C@@H](C)CC)NC(=O)[C@@H]2C[C@@H](O)CN2C(=O)[C@@H]2CCCN2C(=O)[C@H](Cc2ccccc2)NC(=O)[C@H](Cc2ccc(O)cc2)NC(=O)[C@H](CCCCNC(=O)CN2CCN(CC(=O)O)CCN(CC(=O)O)CCN(CC(=O)O)CC2)NC(=O)[C@H](CCCNC(N)=O)NC1=O [UPAR-275, Butoc-[Cys-Cit-Lys(DOTA)-Tyr-Phe-Pro-Hyp-Ile-Nva-Cys]-NH2] (Butoxycarbonyl-C[Cit]K(DOTA)YFP[Hyp]I[Nva]C-NH2; disulfide 1-10) | 70 | < 1.58 | ≤ 10 | – | – | –
